Patent US8148391B2 (Cephalon, Inc., priority 2006, dated 2012)
Where two headings read alike, the source gives them in different places.

Legend:
[1] = target: T1, baculovirus-expressed ALK (Homo sapiens, UniProt Q9UM73); assay: ALK Kinase Assay (ELISA-type, time-resolved fluorescence); assay type: biochemical
T1 construct: host or cells: baculovirus expression system
Outline: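 Wells were coated with phospholipase C-γ at 10 μg/mL in Tris-buffered saline. Adding 30 ng/ml enzyme started the reaction, which ran at 37° C for 15 minutes before Eu-N1 PT66 antibody detection. Percent inhibition versus log10 concentration gave IC50 by variable-slope fit.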

[2] = target: T2, c-Met (cytoplasmic domain) (Homo sapiens, UniProt P08581); assay: c-Met Kinase Assay (same methods as for ALK, with modifications); assay type: biochemical
T2 construct: 10 ng/mL c-Met (cytoplasmic domain, Invitrogen Corporation #PV3143); purchased Invitrogen Corporation PV3143
T2 sequence (P08581 956-1390 limits assumed): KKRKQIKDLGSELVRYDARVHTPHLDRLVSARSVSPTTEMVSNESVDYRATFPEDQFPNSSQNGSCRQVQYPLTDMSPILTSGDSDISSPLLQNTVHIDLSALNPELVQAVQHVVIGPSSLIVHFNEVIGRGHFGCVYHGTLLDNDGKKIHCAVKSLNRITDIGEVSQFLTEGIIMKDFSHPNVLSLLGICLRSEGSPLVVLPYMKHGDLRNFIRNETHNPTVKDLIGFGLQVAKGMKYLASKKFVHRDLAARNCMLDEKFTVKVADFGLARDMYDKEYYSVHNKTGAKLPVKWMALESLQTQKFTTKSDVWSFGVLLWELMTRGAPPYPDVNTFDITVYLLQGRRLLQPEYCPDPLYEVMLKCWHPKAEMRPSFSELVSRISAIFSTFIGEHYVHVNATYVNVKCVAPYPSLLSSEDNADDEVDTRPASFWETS
Outline: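 Steps: coat wells with PLC-γ (10 μg/mL, Tris-buffered saline); add 10 ng/mL c-Met cytoplasmic domain to initiate; incubate 15 min, 37° C; detect phosphoproduct via Eu-N1 PT66 antibody.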

[3] = ALK kinase inhibition, 1 μM ATP, read-out: ALK Activity
[4] = c-Met kinase inhibition, 1 μM ATP, read-out: cMet Activity
[5] = 1 μM ATP (Km level), read-out: ALK Activity (ALK Kinase Inhibition, IC50)
[6] = 1 μM ATP (Km level), read-out: cMet Activity (c-Met Kinase Inhibition, IC50)
[7] = 1 μM ATP (Km level), 30 ng/ml ALK, 37° C., 15 minutes, read-out: ALK Activity (ALK kinase inhibition, IC50 class)
[8] = 1 μM ATP (Km level), 10 ng/mL c-Met, read-out: cMet Activity (c-Met kinase inhibition, IC50 class)

T1 sequence (Q9UM73 19-1620): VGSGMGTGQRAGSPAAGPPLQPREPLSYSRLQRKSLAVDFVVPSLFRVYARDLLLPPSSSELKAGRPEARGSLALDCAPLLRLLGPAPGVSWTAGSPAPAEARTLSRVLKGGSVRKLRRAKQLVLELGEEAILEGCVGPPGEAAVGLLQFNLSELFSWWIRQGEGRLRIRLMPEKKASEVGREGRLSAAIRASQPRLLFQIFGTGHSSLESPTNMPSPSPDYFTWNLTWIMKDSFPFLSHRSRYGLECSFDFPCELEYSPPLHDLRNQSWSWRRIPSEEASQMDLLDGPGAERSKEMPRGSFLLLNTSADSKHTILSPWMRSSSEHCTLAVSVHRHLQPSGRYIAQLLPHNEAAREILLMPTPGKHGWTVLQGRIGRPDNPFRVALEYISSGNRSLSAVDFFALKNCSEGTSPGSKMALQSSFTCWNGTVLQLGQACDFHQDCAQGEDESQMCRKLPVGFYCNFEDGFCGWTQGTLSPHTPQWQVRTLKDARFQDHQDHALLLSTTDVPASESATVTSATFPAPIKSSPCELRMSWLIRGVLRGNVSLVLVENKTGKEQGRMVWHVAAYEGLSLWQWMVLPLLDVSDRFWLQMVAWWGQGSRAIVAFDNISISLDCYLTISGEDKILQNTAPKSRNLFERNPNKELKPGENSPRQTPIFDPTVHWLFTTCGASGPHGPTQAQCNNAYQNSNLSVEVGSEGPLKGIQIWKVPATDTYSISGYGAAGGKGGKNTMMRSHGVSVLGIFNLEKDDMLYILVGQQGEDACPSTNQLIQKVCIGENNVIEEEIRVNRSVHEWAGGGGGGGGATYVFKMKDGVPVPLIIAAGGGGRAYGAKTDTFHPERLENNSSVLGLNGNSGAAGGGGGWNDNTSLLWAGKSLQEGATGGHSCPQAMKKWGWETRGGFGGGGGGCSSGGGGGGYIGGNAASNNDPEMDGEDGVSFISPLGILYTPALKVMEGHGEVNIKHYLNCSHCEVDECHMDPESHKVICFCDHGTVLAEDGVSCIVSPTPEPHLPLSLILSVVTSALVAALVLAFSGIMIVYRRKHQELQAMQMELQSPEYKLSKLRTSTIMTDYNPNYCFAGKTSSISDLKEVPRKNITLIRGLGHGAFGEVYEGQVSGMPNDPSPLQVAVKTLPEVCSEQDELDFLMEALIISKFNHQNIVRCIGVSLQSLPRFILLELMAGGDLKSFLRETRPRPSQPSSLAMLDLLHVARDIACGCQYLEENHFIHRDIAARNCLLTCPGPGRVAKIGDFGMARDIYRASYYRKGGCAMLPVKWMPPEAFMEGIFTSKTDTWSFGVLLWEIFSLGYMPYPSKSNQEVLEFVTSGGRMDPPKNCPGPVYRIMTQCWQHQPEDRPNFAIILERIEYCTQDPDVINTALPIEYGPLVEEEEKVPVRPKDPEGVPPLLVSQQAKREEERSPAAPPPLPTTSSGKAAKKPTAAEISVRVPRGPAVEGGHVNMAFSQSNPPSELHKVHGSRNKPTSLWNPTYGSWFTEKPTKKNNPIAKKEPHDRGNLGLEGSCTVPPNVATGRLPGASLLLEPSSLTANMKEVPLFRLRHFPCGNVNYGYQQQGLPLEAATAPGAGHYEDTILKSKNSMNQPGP

SMILES	IC50 [1, 3] [nM]	IC50 [2, 4] [nM]	IC50 [1, 5] [nM]	IC50 [2, 6] [nM]	other results
COCCN1CCc2ccc(Nc3ncc(Cl)c(Nc4cccc5c4ncn5C)n3)cc2CC1 [Example 1006, 5-Chloro-N*2*-[3-(2-methoxy-ethyl)-2,3,4,5-tetrahydro-1H-benzo[d]azepin-7-yl]-N*4*-(1-methyl-1H-benzoimidazol-4-yl)-pyrimidine-2,4-diamine]	–	–	100 to 1000	1000 to 10000	–
COCCN1CCc2ccc(Nc3ncc(Cl)c(Nc4ccccc4S(=O)(=O)N4CCCC4)n3)cc2CC1 [Example 1730, 5-Chloro-N*2*-[3-(2-methoxy-ethyl)-2,3,4,5-tetrahydro-1H-benzo[d]azepin-7-yl]-N*4*-[2-(pyrrolidine-1-sulfonyl)-phenyl]-pyrimidine-2,4-diamine]	< 100	< 100	–	–	–
CNC(=O)c1ccccc1Nc1nc(Nc2ccc3c(c2)C2CN(C(C)C)CC3O2)ncc1Cl (stereo not drawn) [Example 62, 2-[5-Chloro-2-(10-isopropyl-12-oxa-10-aza-tricyclo[6.3.1.0*2,7*]dodeca-2,4,6-trien-4-ylamino)-pyrimidin-4-ylamino]-N-methyl-benzamide]	–	–	–	–	IC50 ([1]; ALK kinase inhibition, 1 μM ATP (Km level), read-out: ALK Activity): < 100 nM; IC50 ([2]; c-Met kinase inhibition, 1 μM ATP (Km level), read-out: cMet Activity): 100 to 1000 nM
CC1(C)CCC(=O)Nc2ccc(Nc3ncc(Cl)c(Nc4c(F)cccc4S(C)(=O)=O)n3)cc21 [Example 1260, 7-[5-Chloro-4-(2-fluoro-6-methanesulfonyl-phenylamino)-pyrimidin-2-ylamino]-5,5-dimethyl-1,3,4,5-tetrahydro-1-benzazepin-2-one]	–	–	–	–	IC50 [1, 7]: < 100 nM; IC50 [2, 8]: 1000 to 10000 nM
CN1C(=O)OCCc2cc(Nc3ncc(Cl)c(Nc4ccccc4OCC#N)n3)ccc21 [Example 1748, {2-[5-chloro-2-(5-methyl-6-oxo-5,6,8,9-tetrahydro-7-oxa-5-aza-benzocyclohepten-2-ylamino)-pyrimidin-4-ylamino]-phenoxy}-acetonitrile]	< 100	< 100	–	–	–
CCNC(=O)c1ccccc1Nc1nc(Nc2cc3c(cc2OC)CCN(CC(=O)NC)CC3)ncc1Cl [Example 1115, 2-[5-Chloro-2-(8-methoxy-3-methylcarbamoylmethyl-2,3,4,5-tetrahydro-1H-benzo[d]azepin-7-ylamino)-pyrimidin-4-ylamino]-N-ethyl-benzamide]	–	–	–	–	IC50 [1, 7]: < 100 nM; IC50 [2, 8]: 1000 to 10000 nM
CCOC(=O)N1CC(=O)Nc2cc(Nc3ncc(Cl)c(Nc4c(F)cccc4C(=O)NC)n3)ccc2C1 [Example 1869, 8-[5-Chloro-4-(2-fluoro-6-methylcarbamoyl-phenylamino)-pyrimidin-2-ylamino]-2-oxo-1,2,3,5-tetrahydro-benzo[e][1,4]diazepine-4-carboxylic acid ethyl ester]	1000 to 10000	100 to 1000	–	–	–
CNC(=O)c1scc(C)c1Nc1nc(Nc2ccc3c(c2)NC(=O)CN(C(C)=O)C3)ncc1Cl [Example 1850, 3-[2-(4-Acetyl-2-oxo-2,3,4,5-tetrahydro-1H-benzo[e][1,4]diazepin-8-ylamino)-5-chloro-pyrimidin-4-ylamino]-4-methyl-thiophene-2-carboxylic acid methylamide]	100 to 1000	100 to 1000	–	–	–
COc1cc2c(cc1Nc1ncc(Cl)c(N[C@@H]3CCCC[C@H]3NS(C)(=O)=O)n1)CCC(N1CCN(C)CC1)CC2 (single isomer, unassigned) [Example 1101]	–	–	–	–	IC50 [1, 7]: < 100 nM; IC50 [2, 8]: > 10000 nM
COc1cc2c(cc1Nc1ncc(Cl)c(N[C@H]3[C@@H](C(N)=O)[C@@H]4C=C[C@H]3C4)n1)NC(=O)CN(CC1CC1)C2 [Example 1667, (1S,2S,3R,4R)-3-[5-Chloro-2-(4-cyclopropylmethyl-7-methoxy-2-oxo-2,3,4,5-tetrahydro-1H-benzo[e][1,4]diazepin-8-ylamino)-pyrimidin-4-ylamino]-bicyclo[2.2.1]hept-5-ene-2-carboxylic acid amide]	< 100	> 10000	–	–	–
COc1cc2c(cc1Nc1ncc(Cl)c(N[C@@H]3CCCC[C@H]3NS(C)(=O)=O)n1)CCN(C(=O)CN(C)C)CC2 [Example 1125, N-((1R,2R)-2-{5-Chloro-2-[3-(2-dimethylamino-acetyl)-8-methoxy-2,3,4,5-tetrahydro-1H-benzo[d]azepin-7-ylamino]-pyrimidin-4-ylamino}-cyclohexyl)-methanesulfonamide]	–	–	–	–	IC50 [1, 7]: < 100 nM; IC50 [2, 8]: > 10000 nM

Further lines, with some results ahead:

IC50 [1, 3] [nM]	IC50 [2, 4] [nM]	IC50 [1, 5] [nM]	IC50 [2, 6] [nM]	SMILES	other results
< 100	> 10000	–	–	COc1cc2c(cc1Nc1ncc(Cl)c(N[C@H]3[C@@H](C(N)=O)[C@@H]4C=C[C@H]3C4)n1)CCN(C[C@H](O)C(F)(F)F)CC2 [Example 1673, (1S,2S,3R,4R)-3-{5-Chloro-2-[8-methoxy-3-((S)-3,3,3-trifluoro-2-hydroxy-propyl)-2,3,4,5-tetrahydro-1H-benzo[d]azepin-7-ylamino]-pyrimidin-4-ylamino}-bicyclo[2.2.1]hept-5-ene-2-carboxylic acid amide]	–
100 to 1000	> 10000	–	–	CCN1CCc2ccc(Nc3ncc(Cl)c(N[C@H]4CCCC[C@@H]4C(N)=O)n3)cc2CC1 [Example 1502, (1S,2S)-2-[5-Chloro-2-(3-ethyl-2,3,4,5-tetrahydro-1H-enzo[d]azepin-7-ylamino)-pyrimidin-4-ylamino]-cyclohexanecarboxylic acid amide]	–
–	–	1000 to 10000	> 10000	COCCN1CCc2cc(Nc3ncc(Cl)c(NC4C5C=CC(C5)C4c4nc5ccccc5[nH]4)n3)c(OC)cc2CC1 (stereo not drawn) [Example 610, N*4*-[(2-exo-3-exo)-3-(1H-Benzoimidazol-2-yl)-bicyclo[2.2.1]hept-5-en-2-yl]-5-chloro-N*2*-[8-methoxy-3-(2-methoxy-ethyl)-2,3,4,5-tetrahydro-1H-benzo[d]azepin-7-yl]-pyrimidine-2,4-diamine]	–
–	–	100 to 1000	> 10000	COc1cc2c(cc1Nc1ncc(F)c(NC3C4C=CC(C4)C3C(N)=O)n1)CCN(CC(F)F)CC2 (stereo not drawn) [Example 769, (2-exo,3-exo)-3-{2-[3-(2,2-Difluoro-ethyl)-8-methoxy-2,3,4,5-tetrahydro-1H-benzo[d]azepin-7-ylamino]-5-fluoro-pyrimidin-4-ylamino}-bicyclo[2.2.1]hept-5-ene-2-carboxylic acid amide]	–
–	–	< 100	> 10000	COCCN1CCc2cc(Nc3ncc(Cl)c(Nc4ccc(N5CCN(C)CC5)cc4OC)n3)c(OC)cc2CC1 [Example 790, 5-Chloro-N*2*-[8-methoxy-3-(2-methoxy-ethyl)-2,3,4,5-tetrahydro-1H-benzo[d]azepin-7-yl]-N*4*-[2-methoxy-4-(4-methyl-piperazin-1-yl)-phenyl]-pyrimidine-2,4-diamine]	–
–	–	< 100	> 10000	CNC(=O)CN1CCc2cc(Nc3ncc(F)c(Nc4ccc(N5CCOCC5)cc4OC)n3)c(OC)cc2CC1 [Example 809, 2-{7-[5-Fluoro-4-(2-methoxy-4-morpholin-4-yl-phenylamino)-pyrimidin-2-ylamino]-8-methoxy-1,2,4,5-tetrahydro-benzo[d]azepin-3-yl}-N-methyl-acetamide]	–
–	–	< 100	> 10000	COc1cc2c(cc1Nc1ncc(Cl)c(Nc3ccc(C)cc3S(=O)(=O)N(C)C)n1)CCN(CC(=O)N(C)C)CC2 [Example 830, 2-{7-[5-Chloro-4-(2-dimethylsulfamoyl-4-methyl-phenylamino)-pyrimidin-2-ylamino]-8-methoxy-1,2,4,5-tetrahydro-benzo[d]azepin-3-yl}-N,N-dimethyl-acetamide]	–
